Tests used:
[1] = target: T1, Receptor-interacting serine/threonine-protein kinase 1 (Homo sapiens, UniProt Q13546); assay: Inhibition of human RIPK1 assessed as inhibition constant by ADP-Glo Kinase assay
T1 sequence (Q13546 whole entry): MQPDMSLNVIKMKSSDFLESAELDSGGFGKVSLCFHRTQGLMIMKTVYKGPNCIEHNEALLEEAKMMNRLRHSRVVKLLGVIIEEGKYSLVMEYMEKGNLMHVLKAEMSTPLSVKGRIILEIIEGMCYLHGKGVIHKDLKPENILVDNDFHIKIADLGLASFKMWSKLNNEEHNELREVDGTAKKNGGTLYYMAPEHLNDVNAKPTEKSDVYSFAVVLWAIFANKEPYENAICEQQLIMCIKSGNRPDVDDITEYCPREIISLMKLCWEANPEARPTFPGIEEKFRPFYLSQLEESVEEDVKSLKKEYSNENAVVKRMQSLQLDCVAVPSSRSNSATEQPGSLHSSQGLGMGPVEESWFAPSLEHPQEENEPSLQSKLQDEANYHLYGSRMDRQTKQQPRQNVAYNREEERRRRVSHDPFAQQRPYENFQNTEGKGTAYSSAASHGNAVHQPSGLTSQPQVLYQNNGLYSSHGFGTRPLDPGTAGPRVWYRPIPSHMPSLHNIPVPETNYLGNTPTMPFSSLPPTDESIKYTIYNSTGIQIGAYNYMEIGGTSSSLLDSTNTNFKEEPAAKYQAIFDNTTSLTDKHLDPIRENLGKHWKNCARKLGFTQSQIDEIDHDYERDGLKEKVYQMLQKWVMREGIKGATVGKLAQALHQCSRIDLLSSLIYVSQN

U-937 = assay: Inhibition of necroptosis in human U-937 cells; type: functional, cell-based
[2] = target: T2, Receptor-interacting serine/threonine-protein kinase 1 (Homo sapiens) (UniProt Q13546); assay: Inhibition of RIPK1 (unknown origin) at 1 uM relative to control
T2 sequence (whole entry): T1 sequence (Q13546 whole entry)

[3] = Stability of the compound in PBS at pH 7.4 measured after 24 hrs; type: physicochemical; conditions: read-out: Stability
[4] = target: Mitogen-activated protein kinase kinase kinase 9 (Homo sapiens) (UniProt P80192); assay: Inhibition of MLK1 (unknown origin) at 10 uM relative to control
Mitogen-activated protein kinase kinase kinase 9 (Homo sapiens), sequence (P80192 whole entry, looked up): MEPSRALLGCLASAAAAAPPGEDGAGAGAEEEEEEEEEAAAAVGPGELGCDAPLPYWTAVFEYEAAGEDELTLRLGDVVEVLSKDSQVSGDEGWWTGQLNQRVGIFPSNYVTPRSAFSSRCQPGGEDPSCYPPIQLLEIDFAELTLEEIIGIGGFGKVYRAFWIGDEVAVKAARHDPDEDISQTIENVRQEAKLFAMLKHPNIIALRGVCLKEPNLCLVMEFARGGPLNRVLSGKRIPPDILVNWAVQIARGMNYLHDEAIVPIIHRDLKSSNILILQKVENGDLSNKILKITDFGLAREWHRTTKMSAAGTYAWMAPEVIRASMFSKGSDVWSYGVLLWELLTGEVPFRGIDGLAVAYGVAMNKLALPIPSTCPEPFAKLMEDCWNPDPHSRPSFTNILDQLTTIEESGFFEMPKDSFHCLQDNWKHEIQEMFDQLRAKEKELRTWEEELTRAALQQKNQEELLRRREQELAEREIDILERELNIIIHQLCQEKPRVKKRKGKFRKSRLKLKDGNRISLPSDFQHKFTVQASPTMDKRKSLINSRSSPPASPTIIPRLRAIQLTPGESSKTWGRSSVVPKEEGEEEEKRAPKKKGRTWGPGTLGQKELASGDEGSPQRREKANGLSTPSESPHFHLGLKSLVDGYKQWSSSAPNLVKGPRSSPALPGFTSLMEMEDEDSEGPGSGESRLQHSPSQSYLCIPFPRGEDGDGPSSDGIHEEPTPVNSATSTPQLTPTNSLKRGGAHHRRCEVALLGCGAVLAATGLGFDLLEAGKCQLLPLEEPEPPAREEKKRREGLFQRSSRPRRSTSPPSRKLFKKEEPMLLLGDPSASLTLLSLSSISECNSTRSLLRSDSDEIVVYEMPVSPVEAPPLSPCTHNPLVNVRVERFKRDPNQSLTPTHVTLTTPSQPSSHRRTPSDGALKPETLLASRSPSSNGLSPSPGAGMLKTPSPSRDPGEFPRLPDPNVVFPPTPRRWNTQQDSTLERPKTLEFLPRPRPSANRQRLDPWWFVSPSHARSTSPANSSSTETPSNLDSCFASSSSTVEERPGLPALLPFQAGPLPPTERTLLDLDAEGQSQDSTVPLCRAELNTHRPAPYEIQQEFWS

SMILES | Ki [1] | IC50 (U-937) | inhibition [2] | remaining at 24 h [3] | inhibition [4]
COc1cc2c(cn1)N(C)C(=O)C(C(=O)Nc1ncc(Cc3ccccc3)s1)CC2 (racemic) | 52.5 nM | 57.5 nM | – | – | –
CN1C(=O)C(C(=O)Nc2cn(Cc3ccccc3)cn2)CCc2ccccc21 (stereo not drawn) | 135 nM | – | – | – | –
CN1C(=O)C(C(=O)Nc2cn(Cc3ccccc3)cn2)CCc2ccncc21 (stereo not drawn) | 794 nM | 562 nM | – | – | –
COc1cc2c(cn1)N(C)C(=O)C(C(=O)Nc1cn(Cc3ccccc3)cn1)CC2 (stereo not drawn) | 575 nM | 427 nM | – | – | –
CN1C(=O)C(C(=O)Nc2nc(Cc3ccccc3)n[nH]2)CCc2ccccc21 (stereo not drawn) | – | – | 22% | 14% | –
CN1C(=O)C(C(=O)Nc2ncc(Cc3ccccc3)o2)CCc2ccccc21 (stereo not drawn) | 200 nM | 891 nM | – | – | –
CN1C(=O)C(C(=O)Nc2cn(Cc3c(F)cccc3F)cn2)CCc2ccccc21 (stereo not drawn) | 56.2 nM | 148 nM | – | – | –
COc1cc2c(cn1)N(C)C(=O)[C@@H](C(=O)Nc1ncc(Cc3ccccc3)s1)CC2 | 21.9 nM | 63.1 nM | – | – | –
CN1C(=O)C(C(=O)Nc2ncn(Cc3ccccc3)n2)CCc2ccccc21 (stereo not drawn) | 43.7 nM | 61.7 nM | – | – | –
CN1C(=O)[C@@H](NC(=O)c2n[nH]c(Cc3ccccc3)n2)COc2ccccc21 [GSK2982772] | – | 5.89 nM | – | – | –
CN1C(=O)C(C(=O)Nc2nnn(Cc3ccccc3)n2)CCc2ccccc21 (stereo not drawn) | 31.6 nM | 36.3 nM | – | – | –
CN1C(=O)C(C(=O)Nc2cn(Cc3ccccc3)cn2)CCc2cccnc21 (stereo not drawn) | 214 nM | 1100 nM | – | – | –
CN1C(=O)C(C(=O)Nc2cn(Cc3ccccc3)nn2)CCc2ccccc21 (stereo not drawn) | 58.9 nM | 79.4 nM | – | – | –
COc1cc2c(cn1)N(C)C(=O)[C@H](C(=O)Nc1ncc(Cc3ccccc3)s1)CC2 | 1450 nM | – | – | – | 28%
CN1C(=O)C(C(=O)Nc2ncc(Cc3ccccc3)s2)CCc2ccccc21 (stereo not drawn) | 1.91 nM | 11.2 nM | – | – | –
